Paper PMC8704315, “Lichen-Derived Compounds and Extracts as Biologically Active Substances with Anticancer and Neuroprotective Properties” (Pharmaceuticals, 2021)
“And” between values parts separate entries of the source, which are not always exact repeats. Equal entries are not always repeated. Where two headings read alike, the source gives them in different places.

Legend:
A-172 cell line = experiment: MTT cell viability assay, 48 h, A-172; assay type: cell-based, Human; settings: for IC50: Homo sapiens, read-out: IC50 A-172
T98G cell line = experiment: MTT cell viability assay, 48 h, T98G; assay type: cell-based, Human; settings: for IC50: Homo sapiens, T98G, read-out: IC50 T98G
Method: Stock solutions in dimethylsulfoxide DMSO (Sigma-Aldrich, St. Louis, MO, USA), (10 mM for compounds and 10 mg/mL for extracts) were prepared and stored at −20 °C. For the experiments, the stock solutions were diluted ex tempore to the final selected concentration with complete cell culture medium.
Human glioblastoma A-172 and T98G cell lines were purchased from the American Type Culture Collection (ATCC, Manassas, VA, USA), and the European Collection of Authenticated Cell Cultures (ECACC, Salisbury, UK), respectively. The cells were grown at 37 °C in 95% humidified and 5% CO2 atmosphere. Media recommended by the provider were used to cultivate the cells: ATCC-formulated Dulbecco’s modified Eagle’s medium (DMEM) (Sigma Aldrich, St. Louis, MO, USA), and ATCC-formulated Eagle’s Minimum Essential Medium (EMEM) (Sigma-Aldrich, St. Louis, MO, USA) were used for A-172 and T98G cells, respectively. Moreover, the media were supplemented with 10% fetal bovine serum (FBS) (Biowest, France) and 1% antibiotics (penicillin and streptomycin) solution (Sigma-Aldrich, St. Louis, MO, USA). The medium for the T98G cell line was additionally supplemented with 2 mM glutamine, 1% non-essential amino acids, and 1% sodium pyruvate (all obtained from Sigma Aldrich, St. Louis, MO, USA). For the experiments, the amount of FBS was reduced to 5%. All experiments were carried out 24 h after the cells were seeded on 96-well plates.
The effect of the tested compounds and extracts on GBM cell viability was assessed by measuring the ability of cells to metabolize 3-(4,5-dimethylthiazol-2-yl)-2,5-diphenyl-tetrazolium bromide (MTT), as previously described. In brief, 1 × 10^4 cells per well were seeded on 96-well plates. After 24 h incubation, they were treated with varying concentrations of lichen-derived compounds (1, 5, 10, 25, 50 and 100 µM) and extracts (1, 5, 10, 25, 50 and 100 µg/mL). Cells treated with medium containing the respective concentrations of DMSO (Sigma-Aldrich, St. Louis, MO, USA) were used as a control. After 48 h incubation the cells were washed with phosphate-buffered saline (PBS) buffer and incubated for 4 h in the presence of PBS containing 0.5 mg/mL MTT salt (Merck, Darmstadt, Germany). Next, the formazan crystals were dissolved in acidic isopropanol. In order to enhance dissolution of formazan crystals the plates were shaken on the orbital shaker for 30 min. Finally, the absorbance was measured at λ = 570 nm and λ = 690 nm on the microplate reader (Tecan Infinite M200). All the experiments were repeated three times with at least four measurements per assay.

[1] = target: T1, COX-2 enzyme (Human recombinant) (Homo sapiens, UniProt P35354); experiment: COX-2 activity assay (Cayman COX Activity Assay Kit); assay type: biochemical; settings: for inhibition at 250 µg/mL: read-out: COX-2 Inhibition (%)
T1 construct: purchased Cayman 60122
T1 sequence (P35354 18-604): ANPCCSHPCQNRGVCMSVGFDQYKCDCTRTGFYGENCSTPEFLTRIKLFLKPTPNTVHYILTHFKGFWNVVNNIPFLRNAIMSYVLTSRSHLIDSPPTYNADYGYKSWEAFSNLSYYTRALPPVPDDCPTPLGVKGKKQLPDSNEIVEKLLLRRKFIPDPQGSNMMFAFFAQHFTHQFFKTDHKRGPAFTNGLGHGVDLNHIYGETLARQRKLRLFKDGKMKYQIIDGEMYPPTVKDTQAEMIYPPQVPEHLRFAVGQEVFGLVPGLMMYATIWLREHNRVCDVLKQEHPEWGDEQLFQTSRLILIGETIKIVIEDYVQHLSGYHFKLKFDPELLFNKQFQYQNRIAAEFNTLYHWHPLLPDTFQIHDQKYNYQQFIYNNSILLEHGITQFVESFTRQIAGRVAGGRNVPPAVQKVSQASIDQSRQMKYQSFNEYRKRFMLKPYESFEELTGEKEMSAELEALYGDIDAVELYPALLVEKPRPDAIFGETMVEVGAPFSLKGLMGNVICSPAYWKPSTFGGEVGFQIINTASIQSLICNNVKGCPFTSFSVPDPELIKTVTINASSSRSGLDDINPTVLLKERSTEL
Method: A volume of 0.01 mL of the studied sample, dissolved in pure DMSO to obtain 5 mg/mL, was mixed with 0.12 mL of Tris buffer (100 mM, pH 8.0), 0.01 mL hemin, shaken and left for 5 min at 25 °C followed by addition of 0.02 mL colorimetric substrate and 0.02 mL arachidonic acid solution. To start the reaction, 0.02 mL of COX-2 solution was added. The increase of absorbance during incubation at room temperature was recorded at 590 nm. Negative (blank) sample (buffer instead of studied sample) and positive sample (COX-2 inhibitor DuP-697) were run simultaneously. Background of studied samples (0.01 mL of sample mixed with 0.19 mL buffer) was also measured and included in the calculations. Each sample was run in at least 4 repeats. Inhibition of the enzyme activity was expressed in % (indicates by how many % the activity has been reduced in relation to the negative or blank sample for which the maximum activity was assumed as 100%, under the conditions used in the method). Also, inhibition of enzyme activity was expressed as acetylsalicylic acid equivalent concentration (mg/mL). For this purpose, acetylsalicylic acid solutions were prepared at 14 concentrations (0.2-10.0 mg/mL) and analyzed similarly to tested samples.

CUPRAC assay = settings: concentration giving absorbance 0.5; highest 250.0 µg/mL for substances, 312.5 µg/mL for extracts; ± SEM, n = 3
[2] = system: Superoxide dismutase (SOD); experiment: Effect on superoxide dismutase activity; assay type: biochemical; settings: 537.6 μg/mL reaction mixture, ± SEM, n = 3
Method: Sample (50 µL, 5 mg/mL of pure DMSO) was mixed with 10 μL SOD (0.24 U), 160 μL nitrobluetatrazolium solution (0.0025 M), 205 μLphosphate buffer (0.2 M, pH 7.5), 30 μL xanthine (150 mM in 1 M NaOH) and 0.01 mL xanthine oxidase (0.065 U, Sigma Aldrich X4875). The change in the absorbance at 550 nm was measured in tested samples vs. controls without the studied sample after […] of incubation and the effect on the enzyme was calculated using the equation [74]: (3) Inhibition [%]=100 – 100×(Abs. 30 min – Abs. 0 min)/(Abs. control. 30 min – Abs. control 0 min)

[3] = sample 5 mg/mL stock, 250.0 µg/mL in assay, ± SEM
[4] = A 172, 48 h treatment, MTT, ± SEM

SMILES | IC50 (A-172 cell line; A 172, 48 h) | IC50 (T98G cell line; 48 h) | inhibition at 250 µg/mL [1] [%] | Equivalent Concentration of Acetylsalicylic Acid [1, 3] [mg/mL] | CUPRAC IC0.5 (CUPRAC assay) [µg/mL] | SOD Inhibition (%) [2] [%] | SOD Inhibition (%) ([2]; listed as (−)-usnic acid) | cell viability A-172 (A-172 cell line; 10–100 µM, compared to vehicle-treated control) | IC50 (A-172 cell line; [4]) | IC50 (T98G cell line; 48 h treatment, MTT, ± SEM) | reduction in cell viability T98G (T98G cell line; highest tested concentration (100 µM), 48 h MTT) | inhibition at 250 µg/mL [1, 3] [%] | SOD Inhibition (%) ([2]; listed as evernic acid) | SOD Inhibition (%) ([2]; listed as salazinic acid)
CC(=O)C1=C(O)C=C2Oc3c(C(C)=O)c(O)c(C)c(O)c3C2(C)C1=O (single isomer, unassigned; (-)) [(−)-Usnic acid, (−)-usnic acid] | 31.5 µg/mL and 91.4 µM | 13 µg/mL and 37.8 µM | 59.3 ± 3.5 | 12.9 ± 1.5 | >250.0 | 19.6 ± 0.6 | ~ 20% | – | – | – | – | – | – | –
COc1cc(C)c(C(=O)Oc2cc(C)c(C(=O)O)c(O)c2)c(O)c1 [Evernic acid, evernic acid] | – | – | – | 10.9 ± 1.8 | >250.0 | 21.2 ± 0.0 | – | ~ 80% | > 33.2 µg/mL and > 100 µM | > 33.2 µg/mL and > 100 µM | ~ 20% | 50.7 ± 2.1 | ~ 20% | –
Cc1cc(O)c(C=O)c2c1C(=O)Oc1c(CO)c(O)c3c(c1O2)C(O)OC3=O (centres unmarked) [Salazinic acid, salazinic acid] | – | – | – | 12.9 ± 0.1 | >250.0 | 19.4 ± 0.3 | – | – | > 38.8 µg/mL and > 100 µM | > 38.8 µg/mL and > 100 µM | – | 60.3 ± 3 | – | ~ 20%
